Converted amounts (≈) assume the structure as drawn.

The text below walks through data of patent US20050107423A1, “Quinolone antibacterial agents” (priority 2003, published 2005).

Holding throughout (test): Antibacterial assay, microtitration MIC (Test A)
Holding throughout (type): cell-based

One assay relates to S. pneumo SV-1. The settings on record: Gram Positive Bacteria, strain SV-1; for MIC: read-out: Minimum Inhibitory Concentrations S. pneumo SV-1. In short, it runs like this:
(§1)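 Read-out is the MIC, obtained through conventional microtitration testing of Gram-positive and Gram-negative organisms.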

Another assay deals with S pyogenes C203. The settings on record: Gram Positive Bacteria, strain C203; for MIC: read-out: Minimum Inhibitory Concentrations S pyogenes C203. An outline of the steps:
as §1

Another assay deals with S. aureus UC-76. The settings on record: strain UC-76; for MIC: Staphylococcus aureus, UC76, Gram Positive Bacteria, read-out: Minimum Inhibitory Concentrations S. aureus UC-76. In short, it runs like this: as §1
The next assay relates to E. faecalis MGH-2. The conditions noted are these: strain MGH-2; for MIC: Enterococcus faecalis, MGH2, Gram Positive Bacteria, read-out: Minimum Inhibitory Concentrations E. faecalis MGH-2. In short, it runs like this:
as §1

Turning to `Nc1nc(-n2cc(C(=O)O)c(=O)c3cc(F)c(N4C[C@@H](O)[C@@H](O)C4)nc32)c(F)cc1F` [drawing 399], the MIC was found to be 0.5 µg/mL (≈ 1.14 µM) with S. pneumo SV-1, 0.25 µg/mL (≈ 0.572 µM) with S pyogenes C203, 0.125 µg/mL (≈ 0.286 µM) in the assay with S. aureus UC-76 and 0.5 µg/mL (≈ 1.14 µM) in the assay with E. faecalis MGH-2.

`COc1c(N2C[C@@H](CO)[C@@H](CO)C2)c(F)c(N)c2c(=O)c(C(=O)O)cn(C3CC3)c12` [drawing 400]: the MIC was found to be 0.125 µg/mL (≈ 0.297 µM) in the assay on S. pneumo SV-1, 0.25 µg/mL (≈ 0.593 µM) with S pyogenes C203, 0.008 µg/mL (≈ 0.019 µM) in the assay with S. aureus UC-76 and 0.25 µg/mL (≈ 0.593 µM) with E. faecalis MGH-2.

For `O=C(O)c1cn(C2CC2)c2c(Cl)c(N3C[C@@H](CO)[C@@H](CO)C3)c(F)cc2c1=O` [drawing 401], the MIC in the assay on S. pneumo SV-1 stood at 0.125 µg/mL (≈ 0.304 µM); in the assay with S pyogenes C203, 0.125 µg/mL (≈ 0.304 µM); with S. aureus UC-76, 0.004 µg/mL (≈ 0.00974 µM); with E. faecalis MGH-2, 0.125 µg/mL (≈ 0.304 µM).

On to `Nc1nc(-n2cc(C(=O)O)c(=O)c3cc(F)c(N4C[C@@H](CO)[C@@H](CO)C4)c(Cl)c32)c(F)cc1F` [drawing 402], for which the MIC is 0.5 µg/mL (≈ 1 µM) with S. pneumo SV-1, 0.5 µg/mL (≈ 1 µM) in the assay with S pyogenes C203, 0.125 µg/mL (≈ 0.251 µM) in the assay on S. aureus UC-76 and 2 µg/mL (≈ 4.01 µM) with E. faecalis MGH-2.

Regarding `COc1c(N2C[C@@H](CO)[C@@H](CO)C2)c(F)cc2c(=O)c(C(=O)O)cn(C3CC3)c12` [drawing 403], the MIC in the assay on S. pneumo SV-1 is 0.06 µg/mL (≈ 0.148 µM); in the assay on S pyogenes C203, 0.06 µg/mL (≈ 0.148 µM); in the assay with S. aureus UC-76, 0.002 µg/mL (≈ 0.00492 µM); in the assay with E. faecalis MGH-2, 0.06 µg/mL (≈ 0.148 µM).

For `COc1c(N2C[C@H](CO)[C@@H](CO)C2)c(F)cc2c(=O)c(C(=O)O)cn(C3CC3)c12` [drawing 404], the MIC is 0.125 µg/mL (≈ 0.308 µM) in the assay with S. pneumo SV-1, 0.125 µg/mL (≈ 0.308 µM) in the assay on S pyogenes C203, 0.008 µg/mL (≈ 0.0197 µM) in the assay on S. aureus UC-76 and 0.125 µg/mL (≈ 0.308 µM) with E. faecalis MGH-2.

As for `Cc1c(N2C[C@@H](CO)[C@@H](CO)C2)c(F)cc2c(=O)c(C(=O)O)cn(C3CC3)c12` [drawing 405], the MIC in the assay with S. pneumo SV-1 was 0.06 µg/mL (≈ 0.154 µM); with S pyogenes C203, 0.06 µg/mL (≈ 0.154 µM); in the assay on S. aureus UC-76, 0.004 µg/mL (≈ 0.0102 µM); in the assay on E. faecalis MGH-2 it was 0.06 µg/mL (≈ 0.154 µM).

`COC[C@H]1CN(c2c(F)cc3c(=O)c(C(=O)O)cn(C4CC4)c3c2C)C[C@H]1CO` [drawing 406]: the MIC in the assay with S. pneumo SV-1 amounted to 0.03 µg/mL (≈ 0.0742 µM); in the assay with S pyogenes C203, 0.06 µg/mL (≈ 0.148 µM); in the assay with S. aureus UC-76 it was 0.004 µg/mL (≈ 0.00989 µM); with E. faecalis MGH-2, 0.125 µg/mL (≈ 0.309 µM).

For the molecule `COC[C@@H]1CN(c2c(F)cc3c(=O)c(C(=O)O)cn(C4CC4)c3c2C)C[C@@H]1COC` [drawing 407], the MIC in the assay with S. pneumo SV-1 is 0.25 µg/mL (≈ 0.597 µM); in the assay on S pyogenes C203, 0.25 µg/mL (≈ 0.597 µM); in the assay on S. aureus UC-76, 0.03 µg/mL (≈ 0.0717 µM); with E. faecalis MGH-2, 0.5 µg/mL (≈ 1.19 µM).

With `COC[C@@H]1CN(c2c(F)cc3c(=O)c(C(=O)O)cn(C4CC4)c3c2C)C[C@@H]1CO` [drawing 408], the MIC in the assay with S. pneumo SV-1 was determined as 0.03 µg/mL (≈ 0.0742 µM); in the assay with S pyogenes C203, 0.06 µg/mL (≈ 0.148 µM); in the assay with S. aureus UC-76, 0.004 µg/mL (≈ 0.00989 µM); with E. faecalis MGH-2, 0.06 µg/mL (≈ 0.148 µM).

Regarding `CCOC[C@@H]1CN(c2c(F)cc3c(=O)c(C(=O)O)cn(C4CC4)c3c2C)C[C@@H]1CO` [drawing 409], the MIC turned out to be 0.06 µg/mL (≈ 0.143 µM) in the assay with S. pneumo SV-1, 0.125 µg/mL (≈ 0.299 µM) in the assay with S pyogenes C203, 0.004 µg/mL (≈ 0.00956 µM) in the assay with S. aureus UC-76 and 0.125 µg/mL (≈ 0.299 µM) with E. faecalis MGH-2.

`CCCOC[C@@H]1CN(c2c(F)cc3c(=O)c(C(=O)O)cn(C4CC4)c3c2C)C[C@@H]1CO` [drawing 410]: the MIC in the assay on S. pneumo SV-1 stood at 0.06 µg/mL (≈ 0.139 µM); in the assay on S pyogenes C203, 0.125 µg/mL (≈ 0.289 µM); in the assay with S. aureus UC-76 it was 0.004 µg/mL (≈ 0.00925 µM); with E. faecalis MGH-2 it was 0.125 µg/mL (≈ 0.289 µM).

In the case of `CC(=O)OC[C@@H]1CN(c2c(F)cc3c(=O)c(C(=O)O)cn(C4CC4)c3c2C)C[C@@H]1COC(C)=O` [drawing 411], the MIC in the assay on S. pneumo SV-1 came out at 0.06 µg/mL (≈ 0.126 µM); with S pyogenes C203, 0.125 µg/mL (≈ 0.263 µM); in the assay with S. aureus UC-76, 0.015 µg/mL (≈ 0.0316 µM); with E. faecalis MGH-2, 0.125 µg/mL (≈ 0.263 µM).

In the case of `CCC(=O)OC[C@@H]1CN(c2c(F)cc3c(=O)c(C(=O)O)cn(C4CC4)c3c2C)C[C@@H]1COC(=O)CC` [drawing 412], the MIC in the assay on S. pneumo SV-1 is 0.06 µg/mL (≈ 0.119 µM); in the assay on S pyogenes C203 it was 0.125 µg/mL (≈ 0.249 µM); in the assay with S. aureus UC-76, 0.03 µg/mL (≈ 0.0597 µM); in the assay with E. faecalis MGH-2, 0.5 µg/mL (≈ 0.995 µM).

On to `Cc1c(N2C[C@@H](COC(=O)C(C)C)[C@@H](COC(=O)C(C)C)C2)c(F)cc2c(=O)c(C(=O)O)cn(C3CC3)c12` [drawing 413], for which the MIC in the assay with S. pneumo SV-1 turned out to be 0.125 µg/mL (≈ 0.236 µM); with S pyogenes C203, 0.25 µg/mL (≈ 0.471 µM); in the assay on S. aureus UC-76, 1 µg/mL (≈ 1.88 µM); in the assay with E. faecalis MGH-2, 4 µg/mL (≈ 7.54 µM).

On to `Cc1c(N2C[C@@H](CCO)[C@@H](CCO)C2)c(F)cc2c(=O)c(C(=O)O)cn(C3CC3)c12` [drawing 414], for which the MIC with S. pneumo SV-1 stood at 0.03 µg/mL (≈ 0.0717 µM); with S pyogenes C203, 0.03 µg/mL (≈ 0.0717 µM); with S. aureus UC-76 it was 0.002 µg/mL (≈ 0.00478 µM); in the assay on E. faecalis MGH-2, 0.06 µg/mL (≈ 0.143 µM).

Consider `COc1c(N2C[C@@H](CCO)[C@@H](CCO)C2)c(F)cc2c(=O)c(C(=O)O)cn(C3CC3)c12` [drawing 415], for which the MIC in the assay on S. pneumo SV-1 was found to be 0.06 µg/mL (≈ 0.138 µM); in the assay with S pyogenes C203, 0.06 µg/mL (≈ 0.138 µM); in the assay with S. aureus UC-76 it was 0.004 µg/mL (≈ 0.00921 µM); with E. faecalis MGH-2, 0.125 µg/mL (≈ 0.288 µM).

Turning to `O=C(O)c1cn(C2CC2)c2c(OC(F)F)c(N3C[C@@H](CCO)[C@@H](CCO)C3)c(F)cc2c1=O` [drawing 416], the MIC in the assay with S. pneumo SV-1 worked out at 0.125 µg/mL (≈ 0.266 µM); in the assay with S pyogenes C203, 0.125 µg/mL (≈ 0.266 µM); with S. aureus UC-76, 0.008 µg/mL (≈ 0.017 µM); in the assay on E. faecalis MGH-2 it was 0.125 µg/mL (≈ 0.266 µM).

Consider `Cc1c(N2CC(CO)C(C)(C)C2)c(F)cc2c(=O)c(C(=O)O)cn(C3CC3)c12` (centres unmarked) [drawing 427], for which the MIC worked out at 0.03 µg/mL (≈ 0.0772 µM) in the assay with S. pneumo SV-1, 0.06 µg/mL (≈ 0.154 µM) in the assay on S pyogenes C203, 0.002 µg/mL (≈ 0.00515 µM) with S. aureus UC-76 and 0.06 µg/mL (≈ 0.154 µM) with E. faecalis MGH-2.

As for `Cc1c(N2CC(CO)C3(CC3)C2)c(F)cc2c(=O)c(C(=O)O)cn(C3CC3)c12` (centres unmarked) [drawing 428], the MIC was 0.06 µg/mL (≈ 0.155 µM) with S. pneumo SV-1, 0.06 µg/mL (≈ 0.155 µM) in the assay on S pyogenes C203, 0.004 µg/mL (≈ 0.0104 µM) in the assay on S. aureus UC-76 and 0.06 µg/mL (≈ 0.155 µM) in the assay on E. faecalis MGH-2.

Regarding `Cc1c(N2CC(C(O)CO)C3(CC3)C2)c(F)cc2c(=O)c(C(=O)O)cn(C3CC3)c12` (centres unmarked) [drawing 431], the MIC is 0.125 µg/mL (≈ 0.3 µM) with S. pneumo SV-1, 0.125 µg/mL (≈ 0.3 µM) in the assay on S pyogenes C203, 0.008 µg/mL (≈ 0.0192 µM) in the assay on S. aureus UC-76 and 0.125 µg/mL (≈ 0.3 µM) in the assay on E. faecalis MGH-2.

As for `Cc1c(N2CC(C(C)O)C(C)(C)C2)c(F)cc2c(=O)c(C(=O)O)cn(C3CC3)c12` (centres unmarked) [drawing 432], the MIC was determined as 0.06 µg/mL (≈ 0.149 µM) with S. pneumo SV-1, 0.125 µg/mL (≈ 0.311 µM) in the assay with S pyogenes C203, 0.008 µg/mL (≈ 0.0199 µM) in the assay on S. aureus UC-76 and 0.06 µg/mL (≈ 0.149 µM) in the assay with E. faecalis MGH-2.

Regarding `COCCOCC(O)C1CN(c2c(F)cc3c(=O)c(C(=O)O)cn(C4CC4)c3c2C)CC1(C)C` (centres unmarked) [drawing 433], the MIC with S. pneumo SV-1 was 1 µg/mL (≈ 2.1 µM); with S pyogenes C203 it was 1 µg/mL (≈ 2.1 µM); in the assay with S. aureus UC-76 it was 0.03 µg/mL (≈ 0.063 µM); in the assay with E. faecalis MGH-2, 0.5 µg/mL (≈ 1.05 µM).

For `Cc1c(N2CC(C(O)CO)C(C)(C)C2)c(F)cc2c(=O)c(C(=O)O)cn(C3CC3)c12` (centres unmarked) [drawing 434], the MIC with S. pneumo SV-1 was found to be 0.125 µg/mL (≈ 0.299 µM); with S pyogenes C203, 0.125 µg/mL (≈ 0.299 µM); with S. aureus UC-76, 0.008 µg/mL (≈ 0.0191 µM); in the assay with E. faecalis MGH-2 it was 0.125 µg/mL (≈ 0.299 µM).

As for `COCC(O)C1CN(c2c(F)cc3c(=O)c(C(=O)O)cn(C4CC4)c3c2C)CC1(C)C` (centres unmarked) [drawing 435], the MIC in the assay on S. pneumo SV-1 turned out to be 0.25 µg/mL (≈ 0.578 µM); in the assay with S pyogenes C203, 0.5 µg/mL (≈ 1.16 µM); with S. aureus UC-76 it was 0.015 µg/mL (≈ 0.0347 µM); in the assay on E. faecalis MGH-2 it was 0.25 µg/mL (≈ 0.578 µM).

For the molecule `Cc1c(N2CC(C)(CO)C(C)(CO)C2)c(F)cc2c(=O)c(C(=O)O)cn(C3CC3)c12` (centres unmarked) [drawing 439], the “Minimum Inhibitory Concentrations S. pneumo SV-1” value with S. pneumo SV-1 came to 0.25 µg/mL. Also, the “Minimum Inhibitory Concentrations S pyogenes C203” value with S pyogenes C203 was determined as 0.25 µg/mL. In addition, the “Minimum Inhibitory Concentrations S. aureus UC-76” value in the assay on S. aureus UC-76 (Gram Positive Bacteria) worked out at 0.15 µg/mL. In addition, the “Minimum Inhibitory Concentrations E. faecalis MGH-2” value in the assay with E. faecalis MGH-2 (Gram Positive Bacteria) was 0.25 µg/mL.
